Assays:
Type in all cases: physicochemical
[1] = Assay (%) test of APIs in cream, stability study, HPLC method
Procedure: The stability of the product is confirmed by the stability studies performed for 3/6 months as per ICH guidelines.
APIs-stability experiments were carried out (see tables 3-20) using several products that are representative of the present invention. Tests were carried out to observe (or measure as appropriate) the physical appearance of the product, the pH value and assay of the APIs over a period of time. […] Betamethasone Valerate—0.12% (w/w) • ii. Fluticasone Propionate—0.05% (w/w) • iii. Mometasone Furoate—0.1% (w/w) • iv. Dexamethasone Acetate—0.1% (w/w) • v. Hydrocortisone Acetate—1.0% (w/w) • vi. Clobetasol Propionate—0.05% (w/w) • vii. Beclomethasone Dipropionate—0.025% (w/w) • viii. Betamethasone Dipropionate—0.05% (w/w) wherein all percentages are with respect to the final formulation.
The product used for the Stability Studies tests contained approximately 10% extra APIs (overages).

[2] = Stability analysis of raw API by titration method (BP); conditions: after 3 Months
Text: (§1) In both studies the * Initial denotes the results of the samples tested at the time of receipt of the API from the supplier.

[3] = Stability analysis of raw API by stability indicating HPLC method; conditions: for Assay (%) HPLC / Percentage Drop (%) HPLC / loss in 3 Months: raw API; for Assay (%) HPLC / Percentage Drop (%) HPLC: after 3 Months
Text: as §1

Which results are given for `CC(=O)O[C@H]1C[C@@]2(C)[C@@H](C[C@@H](O)[C@H]3[C@@]4(C)CC[C@@H](O)[C@@H](C)[C@@H]4CC[C@@]32C)/C1=C(\CCC=C(C)C)C(=O)O` [Fusidic acid]?
Assay (%) ([1]; in cream Batch No. SFD-01, 30° C. 65% RH, 3rd Month): 108.32%; Assay (%) ([1]; in cream Batch No. SFD-01, 40° C. 75% RH, 1st Month): 108.58%; Assay (%) ([1]; in cream Batch No. SFD-01, 40° C. 75% RH, 2nd Month): 108.44%; Assay (%) ([1]; in cream Batch No. SFD-01, 40° C. 75% RH, 3rd Month): 108.30%; Assay (%) ([1]; in cream Batch No. SFD-01, Freezthaw, 1st Month): 108.41%; Assay (%) ([1]; in cream Batch No. SFD-01, Initial): 108.62%; Assay (%) ([1]; in cream Batch No. SFD-01, Temperature cycling, 1st Month): 108.52%; Assay (%) ([1]; in cream Batch No. SFM-01, 25° C. 60% RH, 1st Month): 108.24%; Assay (%) ([1]; in cream Batch No. SFM-01, 25° C. 60% RH, 2nd Month): 108.22%; Assay (%) ([1]; in cream Batch No. SFM-01, 25° C. 60% RH, 3rd Month): 108.20%; Assay (%) ([1]; in cream Batch No. SFM-01, 25° C. 60% RH, 6th Month): 107.95%; Assay (%) ([1]; in cream Batch No. SFM-01, 30° C. 65% RH, 1st Month): 108.23%; Assay (%) ([1]; in cream Batch No. SFM-01, 30° C. 65% RH, 2nd Month): 108.21%; Assay (%) ([1]; in cream Batch No. SFM-01, 30° C. 65% RH, 3rd Month): 108.16%; Assay (%) ([1]; in cream Batch No. SFM-01, 30° C. 65% RH, 6th Month): 107.92%; Assay (%) ([1]; in cream Batch No. SFM-01, 40° C. 75% RH, 1st Month): 108.26%; Assay (%) ([1]; in cream Batch No. SFM-01, 40° C. 75% RH, 2nd Month): 108.14%; Assay (%) ([1]; in cream Batch No. SFM-01, 40° C. 75% RH, 3rd Month): 108.08%; Assay (%) ([1]; in cream Batch No. SFM-01, 40° C. 75% RH, 6th Month): 107.89%; Assay (%) ([1]; in cream Batch No. SFM-01, Freezthaw, 1st Month): 108.11%; Assay (%) ([1]; in cream Batch No. SFM-01, Initial): 108.27%; Assay (%) ([1]; in cream Batch No. SFM-01, Temperature cycling, 1st Month): 107.63%; Assay (%) ([1]; in cream Batch No. SPC-01, 25° C. 60% RH, 1st Month): 108.30%; Assay (%) ([1]; in cream Batch No. SPC-01, 25° C. 60% RH, 2nd Month): 108.24%; Assay (%) ([1]; in cream Batch No. SPC-01, 25° C. 60% RH, 3rd Month): 108.15%; Assay (%) ([1]; in cream Batch No. SPC-01, 25° C. 60% RH, 6th Month): 108.08%; Assay (%) ([1]; in cream Batch No. SPC-01, 30° C. 65% RH, 1st Month): 108.31%; Assay (%) ([1]; in cream Batch No. SPC-01, 30° C. 65% RH, 2nd Month): 108.32%; Assay (%) ([1]; in cream Batch No. SPC-01, 30° C. 65% RH, 3rd Month): 108.22%; Assay (%) ([1]; in cream Batch No. SPC-01, 30° C. 65% RH, 6th Month): 108.11%; Assay (%) ([1]; in cream Batch No. SPC-01, 40° C. 75% RH, 1st Month): 108.33%; Assay (%) ([1]; in cream Batch No. SPC-01, 40° C. 75% RH, 2nd Month): 108.24%; Assay (%) ([1]; in cream Batch No. SPC-01, 40° C. 75% RH, 3rd Month): 108.10%; Assay (%) ([1]; in cream Batch No. SPC-01, 40° C. 75% RH, 6th Month): 108.01%; Assay (%) ([1]; in cream Batch No. SPC-01, Freezthaw, 1st Month): 108.22%; Assay (%) ([1]; in cream Batch No. SPC-01, Initial): 108.38%; Assay (%) ([1]; in cream Batch No. SPC-01, Temperature cycling, 1st Month): 108.28%; Assay (%) Titration ([2]; 45° C. (C) closed Petri dish): 99.10%; Percentage Drop (%) Titration ([2]; 45° C. (C) closed Petri dish): 1.50%; Assay (%) Titration ([2]; 45° C. (O) open Petri dish): 98.52%; Percentage Drop (%) Titration ([2]; 45° C. (O) open Petri dish): 2.08%; Assay (%) Titration ([2]; RT (C) closed Petri dish): 99.02%; Percentage Drop (%) Titration ([2]; RT (C) closed Petri dish): 1.58%; Assay (%) Titration ([2]; RT (O) open Petri dish): 99.21%; Percentage Drop (%) Titration ([2]; RT (O) open Petri dish): 1.39%; Initial (%) ([3]; raw API tested at the time of receipt from the supplier, method not stated): 100.6%; Assay (%) HPLC ([3]; 45° C. (C) closed Petri dish): 92.12%; Percentage Drop (%) HPLC ([3]; 45° C. (C) closed Petri dish): 8.48%; Assay (%) HPLC ([3]; 45° C. (O) open Petri dish): 89.52%; Percentage Drop (%) HPLC ([3]; 45° C. (O) open Petri dish): 11.08%; loss in 3 Months ([3]; 45° C. (open condition)): about 11%; Assay (%) HPLC ([3]; RT (C) closed Petri dish): 94.37%; Percentage Drop (%) HPLC ([3]; RT (C) closed Petri dish): 6.23%; Assay (%) HPLC ([3]; RT (O) open Petri dish): 92.93%; Percentage Drop (%) HPLC ([3]; RT (O) open Petri dish): 7.67%; loss in 3 Months ([3]; room temperature (open condition)): about 7.7%; stability as an API, Sodium Fusidate compared with Fusidic acid ([3]; raw APIs, Tables 1 and 2): deteriorates more rapidly than Sodium Fusidate
